Laboratory results reported in patent US20250250308A1, “METHODS AND COMPOSITIONS WITH ANTIFUNGAL ACTIVITY” (priority 2022, published 2025).
Where “and” joins values, the source holds several entries; their conditions need not be identical. Equal entries are not always repeated.

B1: EntV: 68 amino acid active C-terminal form of the E. faecalis bacteriocin EntV (SEQ ID NO: 14) (protein, listed as Enterococcus faecalis)
chain: LGSCVANKIKDEFFAMISISAIVKAAQKKAWKELAVTVLRFAKANGLKTNAIIVAGQLALWAVQCGLS

Columns and labels:
[1] = tested on: C. albicans; experiment: Killing of C. elegans by C. albicans (survival of infected nematodes); assay type: in vivo; conditions: for Median survival: C. albicans infected C. elegans exposed to 1 nM peptide, one value per trial
Method: The α7 helix is sufficient to protect C. elegans and inhibit surface adhesion. Based on this structural characterization, fragments of EntV were examined to identify those structural moieties that retained antifungal activity. Synthetic peptides were generated of each of the four alpha helices (plus two flanking amino acids) from the active C-terminus of EntV—α4, α5, α6 and α7 (FIG. 1A) as well as an α4-α6 construct. The peptides were tested for their ability to protect C. elegans against C. albicans infection as established in previous work (Cruz et al., 2013; Graham et al., 2017).
Killing of C. elegans by C. albicans. The methodology used for the C. elegans infection assays was performed, with a few modifications, as described ((Breger et al., 2007; Cruz et al., 2013; Graham et al., 2017; Peleg et al., 2008)). Briefly, C. elegans glp-4(bn2); sek-1(km-4) (Breger et al., 2007) nematodes were propagated and maintained on E. coli strain OP50(Brenner, 1974) that was seeded onto nematode growth medium (NGM) agar using standard techniques (Hope, 1999). To synchronize the animals, L1 stage worms on non-starved plates were washed off, filtered through a 10 μm filter (pluriSelect, pluriStrainer 10 μm), harvested by centrifugation, transferred to OP50 seeded plates, and grown to the L4 stage. To prepare the infection plates, C. albicans strain […] (Gillum et al., 1984) was grown in YPD broth for 24 h at 37° C. with agitation. 500 μl of the culture was plated onto BHI solid medium containing gentamycin (10 μg/ml) and grown for 24 h at 37° C. The synchronized, L4 C. elegans were washed off the OP50 plates in 2 ml sterile M9 buffer and washed once, centrifuging at 750×g for 30 seconds to collect animals. Animals were infected by placing them on the SC5314 lawn for 4 h at 25° C. Following this exposure, they were washed off the plate and washed four times with 2 ml of sterile M9. The nematodes were then pipetted (˜30 per well with 2 wells per condition for a total of ˜60 worms assayed) into six-well plates with 2 ml of liquid medium (20% BHI broth and 80% M9) containing the indicated concentrations of test compounds. Plates were incubated at 25° C., and worm death was scored daily. Kaplan-Meier survival curves were generated and analyzed as described in the quantification and statistical analysis section.

[2] = tested on: C. albicans; experiment: C. albicans adhesion assay (polystyrene plates, crystal violet); assay type: cell-based; conditions: vs. DMSO control
Method: This, like many manifestations of Candida infections, requires adhesion of the fungal cell to surfaces, both biotic and abiotic, whereupon biofilm structures are commonly formed. A model in which binding to plastic surfaces is a measure of the initial stage of biofilm differentiation. In this assay, cells are incubated in polystyrene 96 well plates with the peptides in PBS for one hour and then overlaid with artificial saliva media for 90 minutes before washing and quantitation of adhesion using crystal violet.
C. albicans adhesion assays. The C. albicans adhesion assays were performed using similar techniques as described previously (Gulati et al., 2018). C. albicans strains were grown in YPD broth for 18 h at 30° C. with agitation and then sub-cultured for 4 h in the same conditions. Cells were then collected by centrifugation, washed twice in PBS, and adjusted to a concentration of 1×10^7 cells/ml (measured with Countess II, Life Technologies) in PBS treated with the indicated concentrations of test compounds. The cell suspension was incubated for 1 h at 30° C. with agitation. […]
The adhered cell layer was then stained for 20 minutes with 40 μl of 0.08% crystal violet solution (diluted, Sigma). […] The optical density at 595 nm (OD595) was measured using a Synergy H1 plate reader (BioTek) with Gen5 version 3.08 software (BioTek).

[3] = tested on: C. albicans; experiment: Rat venous catheter biofilm model; assay type: in vivo; conditions: 24 h
Method: The wild-type 12-mer (SEQ ID NO: 4) is protective in a rat venous catheter model of C. albicans infection. C. albicans can form prodigious biofilms on implanted medical devices and the presence of an intravenous catheter is, by itself, a significant risk factor for developing disseminated candidiasis. These infections are notoriously difficult to treat and are associated with the drug resistance characteristic of biofilms. Thus, full-length EntV was tested in a model in which an intravenous catheter is implanted into the jugular vein of rats and inoculated with C. albicans with or without the peptide. After 24 hours, the catheter is removed and sectioned to assess fungal burden by plating for CFUs and by scanning electron microscopy (SEM). […] As the minimal peptide length was determined, this model utilized along with the 12-mer peptide, this time at a lower concentration to probe the extent of protection.
Rat catheter model: The protocol for the rat catheter biofilm was conducted as previously described (Andes, et al., 2004). Briefly, indwelling central venous catheters in rats were inoculated with 1×10^6 cells/mL C. albicans with or without 100 nM EntV or 20 nM 12-mer peptide (group size was 3). To quantitate fungal burden after 24 h, the catheter was removed, and 1 cm of the tip placed in a one milliliter of sterile 0.9% NaCl followed by vortexing. A 1:10 serial dilution of this wash fluid was plated on SDA and colonies counted after 24 h of growth at 35° C. For scanning electron microscopy (SEM), catheters were fixed overnight in 4% formaldehyde and 1% glutaraldehyde in PBS. The catheters were then washed with PBS and treated with 1% osmium tetroxide in PBS for 30 min. Serial ethanol washes and critical point drying were used to dry the segments before they were mounted, and palladium-gold coated. All images were taken using a SEM LEO 1530, with Adobe Photoshop CC (20.0.4 release) used for image compilation.

Molecule	Protection of C. elegans from C. albicans infection (survival) ([1]; 1 nM peptide)	Median survival [1]	Adhesion of C. albicans to polystyrene [2]	Catheter surface biofilm by SEM ([3]; 20 nM)	Reduction of catheter fungal burden ([3]; 20 nM)	Catheter fungal burden (CFUs) ([3]; 100 nM, detection limit 100 CFU)
VAGQLALWAVQC [12aa]	as effective in protecting against C. albicans infection in the worm model and inhibiting surface adhesion as full-length EntV	11 days and 10 days and 12 days and 10.5 days and 9.5 days	as effective in protecting against C. albicans infection in the worm model and inhibiting surface adhesion as full-length EntV	largely clear of fungal biofilm	1.5 logs	
B1		11 days and 10.5 days and 13 days and 12 days and 10 days and 9.5 days and 9 days	significantly reduced adhesion to polystyrene			below the limit of detection
